The target in one assay is T1, TAK1 (Homo sapiens, UniProt O43318).
T1 construct: PSC27 cells were treated with bleomycin and cell lysates were subject to anti-p-TAK1-mediated IP precipitation; endogenous in cells; host or cells: PSC27 human prostate stromal cells
T1 sequence (O43318 1-606): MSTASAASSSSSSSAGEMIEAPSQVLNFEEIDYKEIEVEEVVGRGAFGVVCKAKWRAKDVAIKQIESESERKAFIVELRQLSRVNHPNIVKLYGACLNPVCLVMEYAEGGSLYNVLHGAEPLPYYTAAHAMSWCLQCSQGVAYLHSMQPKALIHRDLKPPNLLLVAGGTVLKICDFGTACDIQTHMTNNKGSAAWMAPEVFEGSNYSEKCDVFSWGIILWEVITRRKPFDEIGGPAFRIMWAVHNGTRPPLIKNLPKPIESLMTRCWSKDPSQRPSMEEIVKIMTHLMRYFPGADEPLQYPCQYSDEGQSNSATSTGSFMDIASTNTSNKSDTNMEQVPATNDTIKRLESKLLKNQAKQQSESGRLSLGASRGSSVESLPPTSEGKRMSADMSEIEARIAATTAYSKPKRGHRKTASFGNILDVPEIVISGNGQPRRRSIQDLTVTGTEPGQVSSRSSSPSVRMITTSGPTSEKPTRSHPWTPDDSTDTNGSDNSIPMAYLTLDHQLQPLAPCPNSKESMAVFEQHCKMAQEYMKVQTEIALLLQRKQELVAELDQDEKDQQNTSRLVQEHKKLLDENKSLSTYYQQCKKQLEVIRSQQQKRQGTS
In words: IP, in vitro kinase assay and Western blot of TAK1 activation in damaged PSC27 stromal cells. Format: cell-based.

A further assay deals with IL-8. In words: IL-8 protein expression of damaged stromal cells (Western blot, ELISA). The format is cell-based, human. The procedure:
FIG. 15. The stromal cells were collected on Day 7 after bleomycin and/or 5Z-7 treatment. The lysates were analyzed by Western blot for their phosphorylation levels of ATM and TAK1, and activation of TAK1 downstream substrate JN K and p38. IL-8, a chemokine was used as a marker secreted factor of SASP, whose expression level was simultaneously analyzed. FIG. 33. The extracellular fluid released by each group of cells were tested by ELISA to determine the protein expression level of the secreted factor IL-8.

Each structure is given as a SMILES string.

Method for TAK1: In the presence of the TAK1 inhibitor 5Z-7, PSC27 cells were treated with bleomycin and cell lysates were subject to anti-p-TAK1-mediated IP precipitation. IP products were analyzed by in vitro kinase assay, and MKK6 was used as TAK1 substrate. p38 phosphorylation was analyzed by Western blot with GAPDH as the loading control. In addition, IL-1α (20 ng/ml) was used to treat stromal cells and was further analyzed by similar IP and in vitro kinase assay.

Consider `COc1cc(O)c2c(c1)/C=C/C[C@H](O)[C@H](O)C(=O)/C=C\C[C@H](C)OC2=O` [5Z-7, 5z-7-oxozeaenol], for which the “activation of TAK1 in damaged stromal cells” value at TAK1 (bleomycin-treated PSC27, 500 nM 5Z-7, IP and in vitro kinase assay with MKK6) is on record as “largely abolished”. In addition, the “physical interaction between TAK1 and TRAF6” value at TAK1 (p-TAK1 antibody IP after bleomycin) is given as “abolished”. In addition, the “chemokine IL-8 protein levels induced by DNA damage” value in the assay on IL-8 (ELISA of extracellular fluid, bleomycin plus inhibitor) is reported as “significantly reduced”. Besides, in the assay on IL-8 (Western blot, Day 7 after bleomycin and/or 5Z-7), the “protein expression level of IL-8” value is listed as “significantly downregulated”.

For the origin of these results see patent US11344601B2, “Tumor microenvironment-related target TAK1 and application thereof in inhibition of tumor” (Shanghai Institutes for Biological Sciences, Chinese …, priority 2017, dated 2022).
